A value given as a limit tells only on which side of the number the result lay.

Experiment [1] has as its target T1, Ba/F3 cells transformed with human Tel-TrkA (Homo sapiens, UniProt P04629).
T1 construct: expressed in transfected cells; host or cells: Ba/F3 murine hematopoietic progenitor cells (luciferase expressing); the other entry of the earlier key: ETV6 (P41212, Transcription factor ETV6)
Description: Proliferation of Ba/F3 cells transformed with human Tel-TrkA (Ba/F3 Tel-TrkA). As to conditions: Table 1; 48 hours, Bright Glo luminescence; read-out: Ba/F3 Tel-TrkA. In kind it is cell-based. An excerpt: Compound dilutions were made in 384 well plates.
The emited luminiscence is quantified using ViewLux (PerkinElmer).

The test system of experiment [2] is parental Ba/F3 cells. Description: Proliferation of parental (untransformed, wt) Ba/F3 cells (BAF3/WT). In kind it is cell-based, murine. The conditions noted are these: Mus musculus, Table 1, parental cells with IL3, 48 hours. The gist of the method: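 Parental Ba/F3 cells, maintained with mouse IL-3, were plated at 700 cells/well with compound (0.17 nM to 10 uM, 3-fold dilutions). After 48 h at 37 °C, proliferation was read by Bright-Glo luminescence.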

T1 sequence (P04629 510-796 limits assumed): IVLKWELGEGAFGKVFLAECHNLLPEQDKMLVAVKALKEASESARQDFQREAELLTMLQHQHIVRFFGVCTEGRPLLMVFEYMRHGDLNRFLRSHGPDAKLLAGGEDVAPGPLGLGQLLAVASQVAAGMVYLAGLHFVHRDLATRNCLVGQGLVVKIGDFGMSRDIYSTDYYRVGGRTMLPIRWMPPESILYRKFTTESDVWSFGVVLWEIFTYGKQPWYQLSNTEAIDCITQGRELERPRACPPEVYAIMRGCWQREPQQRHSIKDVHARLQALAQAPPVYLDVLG

As to `N#Cc1cnc2ccc(N3CC(F)(F)C[C@@H]3c3cccc(F)c3)nn12` [X-246, (R)-6-(4,4-difluoro-2-(3-fluorophenyl)pyrrolidin-1-yl)imidazo[1,2-b]pyridazine-3-carbonitrile], the IC50 in experiment [1] was 56 nM; in experiment [2], above 10 µM.
On the same counts, the results for `CC(=O)NCC(=O)Nc1cnc2ccc(N3CCC[C@H]3c3cccc(F)c3)nn12` [X-201] are 392 nM and above 10 µM.
For `[2H]C1(c2cccc(F)c2)CCCN1c1ccc2ncc(C(=O)OCC)n2n1` (stereo not drawn) [X-162], in that order: 80 nM and above 10 µM.
On to `NC(=O)c1cnc2ccc(N3C[C@@H](F)C[C@@H]3c3cccc(F)c3)nn12` [X-7, 6-((2R,4S)-4-fluoro-2-(3-fluorophenyl)pyrrolidin-1-yl)imidazo[1,2-b]pyridazine-3-carboxamide], for which the figures for the IC50 in experiment [1] and in experiment [2] were 5 nM and 3.56 µM, respectively.
As for `NC(=O)c1cnc2ccc(N3C[C@@H](F)C[C@@H]3c3ccc(F)c(F)c3)nn12` [X-240], the IC50 in experiment [1] was 198 nM; in experiment [2] it was above 10 µM.
As for `CC(=O)c1cnc2ccc(N3CCC[C@@H]3c3cccc(F)c3)nn12` [X-125, (R)-1-(6-(2-(3-fluorophenyl)pyrrolidin-1-yl)imidazo[1,2-b]pyridazin-3-yl)ethanone], the IC50 in experiment [1] was 219 nM; in experiment [2], above 10 µM.
For `NC(=NO)c1cnc2ccc(N3CCC[C@@H]3c3cccc(F)c3)nn12` [X-227, (Z)-6-(2-(3-fluorophenyl)pyrrolidin-1-yl)-N′-hydroxyimidazo[1,2-b]pyridazine-3-carboximidamide], in that order: 44 nM and above 10 µM.
On the same counts, the results for `CC(=O)O[C@@H](C)C(=O)N1CCC(NC(=O)c2cnc3ccc(N4CCC[C@@H]4c4cccc(F)c4)nn23)CC1` [X-33] are 105 nM and above 10 µM.
For `O=C(NC1CCCOC1)c1cnc2ccc(N3CCC[C@@H]3c3cccc(F)c3)nn12` (stereo partly drawn) [X-97], in that order: 8 nM and above 10 µM.
In the case of `O=C(N[C@@H]1CCC[C@H]1O)c1cnc2ccc(N3CCC[C@@H]3c3cccc(F)c3)nn12` [X-81], the figures for the IC50 in experiment [1] and in experiment [2] were 12 nM and above 10 µM, respectively.
Regarding `CCS(=O)(=O)N1CCC(NC(=O)c2cnc3ccc(N4CCC[C@@H]4c4cccc(F)c4)nn23)CC1` [X-27], the figures for the IC50 in experiment [1] and in experiment [2] were 17 nM and above 10 µM, respectively.
On the same counts, the results for `O=C(N[C@@H]1c2ccccc2C[C@H]1O)c1cnc2ccc(N3CCC[C@@H]3c3cccc(F)c3)nn12` [X-106] are 3 nM and above 10 µM.
On the same counts, the results for `O=C(NC(CO)(CO)CO)c1cnc2ccc(N3CCC[C@@H]3c3cccc(F)c3)nn12` [X-101] are 452 nM and above 10 µM.
On the same counts, the results for `O=C(NCCF)c1cnc2ccc(N3CCC[C@@H]3c3cccc(F)c3)nn12` [X-96] are 7 nM and above 10 µM.
On to `[2H]C1(c2cccc(F)c2)CCCN1c1ccc2ncc(C(N)=O)n2n1` (stereo not drawn) [X-8, 6-(2-(3-fluorophenyl)pyrrolidin-1-yl)imidazo[1,2-b]pyridazine-3-carboxamide], for which the IC50 in experiment [1] was 150 nM; in experiment [2], above 10 µM.
For `NC(=O)c1cnc2ccc(N3CCCC3c3cccc(F)c3)nn12` (stereo not drawn) [X-5, 6-(2-(3-fluorophenyl)pyrrolidin-1-yl)imidazo[1,2-b]pyridazine-3-carboxamide], in that order: 117 nM and above 10 µM.
For `O=C(NCc1ccc(F)cc1)c1cnc2ccc(N3CCC[C@@H]3c3cccc(F)c3)nn12` [X-47], in that order: 70 nM and above 10 µM.
For the compound `O=C(NC1CC1)c1cnc2ccc(N3CCC[C@@H]3c3cccc(F)c3)nn12` [X-44], the IC50 is 11 nM in experiment [1] and above 10 µM in experiment [2].
On to `O=C(NO)c1cnc2ccc(N3CCC[C@@H]3c3cccc(F)c3)nn12` [X-150], for which the IC50 in experiment [1] is 210 nM; in experiment [2], above 10 µM.
On the same counts, the results for `O=C(NC1CCOCC1)c1cnc2ccc(N3CCC[C@@H]3c3cccc(F)c3)nn12` [X-93] are 10 nM and above 10 µM.
For `O=C(NCCc1ccc(F)cc1)c1cnc2ccc(N3CCC[C@@H]3c3cccc(F)c3)nn12` [X-37], in that order: 137 nM and above 10 µM.
For the compound `CC(C)(C)OC(=O)N1CCC(NC(=O)c2cnc3ccc(N4CCC[C@@H]4c4cccc(F)c4)nn23)CC1` [X-63], the IC50 in experiment [1] was 60 nM; in experiment [2] it was above 10 µM.
As for `Cn1cccc1/C=C/C(=O)c1cnc2ccc(N3CCC[C@@H]3c3cccc(F)c3)nn12` [X-130], the IC50 was 24 nM in experiment [1] and above 10 µM in experiment [2].
For `NC(=O)c1cnc2ccc(N3CCCC[C@@H]3c3cccc(F)c3)nn12` [X-19], in that order: 79 nM and above 10 µM.
On the same counts, the results for `O=C(NCCN1CCOCC1)c1cnc2ccc(N3C[C@@H](F)C[C@@H]3c3cccc(F)c3)nn12` [X-113] are 9 nM and above 10 µM.
For `N#CCC(=O)Nc1cnc2ccc(N3CCC[C@@H]3c3cccc(F)c3)nn12` [X-184], in that order: 291 nM and above 10 µM.
As to `O=C(NC1CCSCC1)c1cnc2ccc(N3CCC[C@@H]3c3cccc(F)c3)nn12` [X-59], the IC50 in experiment [1] was 36 nM; in experiment [2] it was above 10 µM.
On the same counts, the results for `O=C(NCC1CCCC1)c1cnc2ccc(N3CCC[C@@H]3c3cccc(F)c3)nn12` [X-109] are 40 nM and 7.96 µM.
For `[2H]C1([2H])C(c2cccc(F)c2)N(c2ccc3ncc(C(N)=O)n3n2)C([2H])([2H])C1([2H])[2H]` (stereo not drawn) [X-12], the values for the IC50 in experiment [1] and in experiment [2] were 105 nM and above 10 µM, respectively.
Take `CCNC(=O)c1cnc2ccc(N3CCC[C@@H]3c3cccc(F)c3)nn12` [X-55]: the IC50 in experiment [1] was 7 nM; in experiment [2], above 9.62 µM.
Turning to `CC(C)CNC(=O)c1cnc2ccc(N3CCC[C@@H]3c3cccc(F)c3)nn12` [X-94], the IC50 in experiment [1] is 16 nM; in experiment [2] it was above 10 µM.
On the same counts, the results for `O=C(NCC(F)F)c1cnc2ccc(N3C[C@@H](F)C[C@@H]3c3cccc(F)c3)nn12` [X-114] are 1 nM and 7.49 µM.
Consider `O=C(N[C@H]1CCCC[C@@H]1O)c1cnc2ccc(N3CCC[C@@H]3c3cccc(F)c3)nn12` [X-82], for which the IC50 in experiment [1] was 89 nM; in experiment [2], above 10 µM.
In the case of `CCOC(=O)c1cnc2ccc(N3C[C@@H](F)C[C@@H]3c3cc(F)cc(C#N)c3)nn12` [X-243], the IC50 in experiment [1] was 2 nM; in experiment [2], above 10 µM.
On the same counts, the results for `[2H]C1([2H])CC[C@H](c2cccc(F)c2)N1c1ccc2ncc(C(N)=O)n2n1` [X-11] are 25 nM and above 10 µM.
For `CC(=O)N1CC[C@@H](NC(=O)c2cnc3ccc(N4CCC[C@@H]4c4cccc(F)c4)nn23)C1` [X-66], in that order: 737 nM and above 10 µM.
Turning to `CCOC(=O)N1CCC(NC(=O)c2cnc3ccc(N4CCC[C@@H]4c4cccc(F)c4)nn23)CC1` [X-50], the IC50 in experiment [1] was 40 nM; in experiment [2], above 10 µM.
On the same counts, the results for `O=C(NCCCl)Nc1cnc2ccc(N3CCC[C@H]3c3cccc(F)c3)nn12` [X-209] are 252 nM and above 10 µM.
For `CCn1nccc1NC(=O)c1cnc2ccc(N3CCC[C@@H]3c3cccc(F)c3)nn12` [X-77], in that order: 548 nM and above 10 µM.

The record behind these values is patent US8637516B2 (IRM LLC, priority 2010, dated 2014).
